Like-named read-outs stand apart in the source and are kept apart here.
Experiments:
[1] = mouse, in vivo
Method: (§1) (2) After tumor formation, the mice were divided into four experimental groups, namely, a blank control, a roflumilast group, a sodium ascorbate group, and a roflumilast+sodium ascorbate group. The mice in the roflumilast+sodium ascorbate group were intraperitoneally injected with roflumilast at 4 mg/kg and intravenously injected with sodium ascorbate at 1.5 g/kg every three days, for 5 administrations. At the same time, the roflumilast group and the sodium ascorbate group were separately injected with roflumilast and sodium ascorbate at the same dose in the same way; and normal saline was injected at the same dose in the blank control. The day of the first injection was taken as Day 1, and then the mice were tested and recorded in terms of body weight and tumor size: tumor volume (mm^3)=length (L) ×width (W) 2/2. Luciferin fluorescence imaging was conducted on tumors. That is, a 1 mg/mL D-luciferin potassium aqueous solution was formulated; each mouse was intraperitoneally injected with 100 μL of the D-luciferin potassium aqueous solution, and 10 minutes after injection, was subjected to luciferin fluorescence imaging with a small animal in vivo imager (Model: IVIS Lumina XRMS Series III).

[2] = Body weight of tumor-bearing mice (Example 1); settings: roflumilast 4 mg/kg i.p., sodium ascorbate 1.5 g/kg i.v., every three days, 5 administrations; compared with the control
Method: as §1

Structure (SMILES)	effect on the body weight of mice [1]	effect on the body weight of mice [2]
O=C(Nc1c(Cl)cncc1Cl)c1ccc(OC(F)F)c(OCC2CC2)c1 [roflumilast]	no effect on the body weight of mice	
O=C1O[C@H]([C@@H](O)CO)C([O-])=C1O.[Na+] [sodium ascorbate]		no effect on the body weight of mice
